Measurements as given in patent US20210115366A1, “METHODS OF MAKING IMPROVED HUMAN INTESTINAL ORGANOID COMPOSITIONS VIA APPLICATION OF STRAIN AND HUMAN INTESTINAL ORGANOID COMPOSITIONS THEREOF” (Children's Hospital Medical Center, priority 2017, published 2021).
“Also recorded” adds a separate entry of the source.

Key:
[1] = test system: tHIO+S; experiment: Ex vivo muscle strength (organ bath, isometric force) of tHIO+S muscle strips; parameters: species or system human
Experimental: (§1) After an equilibration period, muscle force contraction was assayed using a logarithmic series of bethanechol doses ranging in concentration from 1 nM to 10 mM. Representative tensile response recordings are plotted for tHIO, tHIO+S and adult jejunum (FIG. 7B). […] To better visualize the differences between tHIO and tHIO+S the data was also plotted sans adult jejunum (FIG. 7C, right panel).
(§2) tHIO and tHIO+S grafts were harvested and placed in ice-cold Hank's Balanced Salt Solution (HBSS). Human surgical samples were maintained overnight at 4° C. in HBSS prior to assaying in order to minimize the effects of anesthetics. Muscle strips (4-6 mm in length and 1-2 mm in width) were dissected from the samples. Strips were then suspended vertically in an organ bath chamber (Radnoti) filled with freshly prepared Krebs-Ringer solution (Sigma; supplemented with 2.5 mM CaCl and 15 mM NaHCO3; pH 7.4), warmed to 37° C. and gassed with 95% O2+5% CO2. Segments were allowed to equilibrate for an hour at an initial tension of 0.5 g. The contractile response of the muscle was continuously recorded, using 4-chamber tissue-organ bath chambers with isometric force transducers (0-25 g; AD Instruments) coupled to a multi-channel bridge amplifiers and data recorder (AD Instruments; PowerLab 4/35) linked to a computer equipped with LabChart Pro software (AD Instruments). […]

[2] = test system: adult human jejunum; experiment: Ex vivo muscle strength (organ bath, isometric force) of adult jejunum muscle strips
Experimental: as §1, §2

[3] = test system: tHIO; experiment: Ex vivo muscle strength (organ bath, isometric force) of tHIO muscle strips; parameters: species or system human
Experimental: as §1, §2

[4] = test system: infant jejunum; experiment: Ex vivo muscle strength (organ bath, isometric force) of infant jejunum muscle strips; parameters: species or system human; details: 10 μM after bethanechol dose series
Experimental: as §1, §2

[5] = 10 μM after bethanechol dose series

Row | EC50 ([1]; Homo sapiens, logarithmic doses 1 nM to 10 mM, read-out: effective concentration to achieve half of the maximal response (EC50), muscle contraction) [µM] | EC50 ([2]; adult human jejunum muscle strips, logarithmic doses 1 nM to 10 mM, read-out: effective concentration to achieve half of the maximal response (EC50), muscle contraction) [µM] | Structure (SMILES) | tension before and after administration of scopolamine (relaxation) [1, 5] | tension before and after administration of scopolamine (relaxation) ([2]; adult jejunum muscle strips, 10 μM after bethanechol dose series) | tension before and after administration of scopolamine (relaxation) [3, 5] | tension before and after administration of scopolamine (relaxation) [4] | tensile response to bethanechol ([3]; 1 nM to 10 mM, EC50 with 95% confidence could not be determined)
1 | – | – | CN1[C@@H]2C[C@@H](OC(=O)[C@H](CO)c3ccccc3)C[C@H]1[C@@H]1O[C@@H]12 [scopolamine] | Relaxation was successfully induced; also recorded: relaxation is observed | Relaxation was successfully induced | Relaxation was successfully induced; also recorded: relaxation is observed | Relaxation was successfully induced | –
2 | 14.7 | 3.28 | CC(C[N+](C)(C)C)OC(N)=O (stereo not shown) [bethanechol, Carbamyl-p-methylcholine chloride] | – | – | – | – | low overall tensile response
